Test results: patent US20190308956A1, “PIPERAZINE DERIVATIVES AS ANTIVIRAL AGENTS WITH INCREASED THERAPEUTIC ACTIVITY” (SERVICIO ANDALUZ DE SALUD, priority 2016, published 2019)

Assays:
Format in all cases: cell-based
HAdV5-GFP = test: Plaque assay, HAdV5-GFP in 293β5 cells; details: read-out: Percentage of plaque formation inhibition, HAdV5-GFP, 10 μM, 293β5 cell line
Description: 1.5. Plaque assay. For low MOI infections, active compounds were further evaluated in a plaque assay. 293β5 cells were seeded in 6-well plates at 4×10^5 cells per well in duplicate for each condition. When cells reached 80-90% confluency, they were infected with HAdV5-GFP or HAdV16-GFP (0.06 vp/cell) and rocked for 2 h at 37° C. The inoculum was removed and the cells were washed once with PBS. The cells were then carefully overlaid with 4 ml/well of equal parts of 1.6% […] Difco Agar Noble (Becton, Dickinson & Co, Sparks, MD) and 2× EMEM (BioWhittaker) supplemented with 2x penicillin/streptomycin, 2× L-glutamine and 10% FBS. The mixture also contained compound in concentrations ranging from 5 to 1 μM. Following incubation for 7 days at 37° C., plates were scanned with a Typhoon 9410 imager (GE Healthcare Life Sciences), and plaques were quantified with ImageJ.43
For the plaque assay 293β5 cells were infected with HAdV5-GFP (in the presence of compound at 10 μM) (Table 2). From this generation of compounds, our primary screening identified 4 compounds (12, 13, 22 and 25) that inhibited HAdV5-GFP plaque formation >90% compared to a control with the same volume of DMSO.

[1] = test system: Acinetobacter baumannii strains resistant to colistine; test: Minimal inhibitory concentration (MIC), microdilution in MHBII; details: 5×10^5 CFU/ml, 18 h; for CMI (MIC) Ab 21R: strain Ab 21R; for CMI (MIC) Ab 21R / CMI (MIC) Ab 22P: MHBII; for CMI (MIC) Ab 22P: strain Ab 22P; for CMI (MIC) Ab 24: strain Ab 24, MHBII
Source text: (§1) All of the strains used were Acinetobacter baumannii strains resistant to colistine: Resistance (R)≥4 Sensibility (S)≤2—All of these strains have been disclosed in Valencia R, Arroyo L A, Conde M, Aldana J M, Torres M J, Fernandez-Cuenca F, et al. Nosocomial outbreak of infection with pan-drug-resistant Acinetobacter baumannii in a tertiary care university hospital. Infection control and hospital epidemiology. 2009; 30(3):257-63. The specific strains used were the following: 1, 10, 11, 14, 16, 17, 19, 20, 21R, 22P, 24, 99 and 113.
Microdilution in cell medium Mueller Hinton Broth II (MHBII). This technique was carried out solely in those piperazines which presented inhibitory activity in the screening study.
We used decreasing concentrations of each piperazine derivative (from 50 μM -0.05 μM) in a concentration of 5×10^5 CFU/ml of each strain of A. baumannii in 96 well plates. These plates were incubated for 18 hours at a temperature 37° C.

[2] = test system: Acinetobacter baumannii strains resistant to colistine; test: Screening of inhibition of bacterial growth at 50 μM; details: 5×10^5 CFU/ml, 18 h; for Screening, growth inhibition Ab 21R: strain Ab 21R; for Screening, growth inhibition Ab 21R / Screening, growth inhibition Ab 22P: 50 μM; for Screening, growth inhibition Ab 22P: strain Ab 22P; for Screening, growth inhibition Ab 24: strain Ab 24, 50 μM
Source text: as §1
Evaluation of the inhibition of the bacterial growth of the 4 families of piperazines derivatives was performed by using a final concentration of 50 μM of each piperazine derivative in a concentration of 5×10^5 CFU/ml of each strain of A. baumannii in 96-well plates.
These plates were incubated for 18 hours at 37° C.

CC1CN(C(=O)c2cc3ccccc3o2)CCN1C(=O)Nc1ccccc1Br (stereo not shown) [Compound 38, 4-(Benzofuran-2-carbonyl)-1-[(2-bromophenyl)aminocarbonyl]-2-methylpiperazine]
inhibition at 10 µM (HAdV5-GFP): 55.8 ± 19.5%

CC1CN(C(=O)c2cc3ccccc3o2)CCN1C(=O)Nc1ccccc1 (stereo not shown) [Compound 41, 4-(Benzofuran-2-carbonyl)-2-methyl-1-(phenylaminocarbonyl)piperazine]
inhibition at 10 µM (HAdV5-GFP): 11.2 ± 26.5%

COc1ccc(NC(=O)N2CCN(C(=O)c3ccccc3)CC2C)cc1 (stereo not shown) [Compound 24, 4-Benzoyl-1-[(4-methoxyphenyl)aminocarbonyl]-2-methylpiperazine]
inhibition at 10 µM (HAdV5-GFP): 0%

CC1CN(C(=O)OC(C)(C)C)CCN1C(=S)Nc1ccc([N+](=O)[O-])cc1 (stereo not shown) [Vip 499]
CMI (MIC) Ab 14 ([1]; strain Ab 14, MHBII): 25 µM
CMI (MIC) Ab 21R [1]: 50 µM
CMI (MIC) Ab 22P [1]: 25 µM
CMI (MIC) Ab 24 [1]: 25 µM
Screening, growth inhibition Ab 14 ([2]; strain Ab 14, 50 μM): <50 µM
Screening, growth inhibition Ab 21R [2]: <50 µM
Screening, growth inhibition Ab 22P [2]: <50 µM
Screening, growth inhibition Ab 24 [2]: <50 µM

CC1CN(C(=O)c2ccccc2)CCN1C(=O)Nc1ccc([N+](=O)[O-])cc1 (stereo not shown) [Compound 23, 4-Benzoyl-2-methyl-1-[(4-nitrophenyl)aminocarbonyl]piperazine]
inhibition at 10 µM (HAdV5-GFP): 71.7 ± 3.43%

COc1ccccc1NC(=O)N1CCN(C(=O)c2cc3ccccc3o2)CC1C (stereo not shown) [Compound 40, 4-(Benzofuran-2-carbonyl)-1-[(2-methoxyphenyl)aminocarbonyl]-2-methylpiperazine]
inhibition at 10 µM (HAdV5-GFP): 16.4 ± 5.81%

CC1CN(C(=O)C(C)(C)C)CCN1C(=S)Nc1ccc([N+](=O)[O-])cc1 (stereo not shown) [Compound 17, 2-Methyl-1-[(4-nitrophenyl)aminothiocarbonyl]-4-pivaloylpiperazine]
inhibition at 10 µM (HAdV5-GFP): 64 ± 8.97%

COc1ccc(NC(=O)N2CCN(C(=O)OC(C)(C)C)CC2C)cc1 (stereo not shown) [Compound 14, 4-tert-Butoxycarbonyl-1-[(4-methoxyphenyl)aminocarbonyl]-2-methylpiperazine]
inhibition at 10 µM (HAdV5-GFP): 49.1 ± 1.39%

C[C@@H]1CN(C(=O)CC2CCCCC2)CCN1C(=S)Nc1cc(C(F)(F)F)cc(C(F)(F)F)c1 [Compound R-615]
CMI (MIC) Ab 24 [1]: 6.25 µM
Screening, growth inhibition Ab 24 [2]: <50 µM

C[C@H]1CN(C(=O)OC(C)(C)C)CCN1C(=S)Nc1cc(C(F)(F)F)cc(C(F)(F)F)c1 [Compound S-592]
CMI (MIC) Ab 21R [1]: 3.12 µM
CMI (MIC) Ab 22P [1]: 12.5 µM
CMI (MIC) Ab 24 [1]: 3.12 µM
Screening, growth inhibition Ab 21R [2]: <50 µM
Screening, growth inhibition Ab 22P [2]: <50 µM
Screening, growth inhibition Ab 24 [2]: <50 µM

C[C@@H]1CN(C(=O)OC(C)(C)C)CCN1C(=S)Nc1cc(C(F)(F)F)cc(C(F)(F)F)c1 [Compound R-592]
CMI (MIC) Ab 21R [1]: 3.12 µM
Screening, growth inhibition Ab 21R [2]: <50 µM

CC1CN(C(=O)C(C)(C)C)CCN1C(=O)Nc1ccc([N+](=O)[O-])cc1 (stereo not shown) [Compound 18, 2-Methyl-1-[(4-nitrophenyl)aminocarbonyl]-4-pivaloylpiperazine]
inhibition at 10 µM (HAdV5-GFP): 0%

COc1ccc(C(=O)N2CCN(C(=O)c3ccccc3)CC2C)cc1 (stereo not shown) [Compound 21, 4-Benzoyl-1-(4-methoxybenzoyl)-2-methylpiperazine]
inhibition at 10 µM (HAdV5-GFP): 0%

COc1ccc(NC(=O)N2CCN(C(=O)C(C)(C)C)CC2C)cc1 (stereo not shown) [Compound 19, 1-[(4-Methoxyphenyl)aminocarbonyl]-2-methyl-4-pivaloylpiperazine]
inhibition at 10 µM (HAdV5-GFP): 0%
